Where a name gives a salt, the structure may show the parent alone.
Assay: Visual aqueous solubility
Type: physicochemical
Conditions: water added in portions to ~10 mg, assessed visually after brief equilibration
Procedure: The salts and free base (˜10 mg) were weighed into glass vials and water was added in 0.1 mL portions up to 3 mL and 1 mL portions thereafter. Solubility was assessed visually following a brief period of equilibration.

Compound | Visual aqueous solubility (listed as Free base) [µg/mL] | Visual aqueous solubility [µg/mL]
CC(=O)Nc1nnc(N2CCN([C@@H](C)c3ccc4c(c3)OCO4)CC2)s1 [Example 69, (S)—N-(5-(4-(1-(benzo[d][1,3]dioxol-5-yl)ethyl)piperazin-1-yl)-1,3,4-thiadiazol-2-yl)acetamide] | <500 | –
CC(=O)Nc1nnc(N2CCN([C@@H](C)c3ccc4c(c3)OCO4)CC2)s1 [L-Tartrate salt, (S)—N-(5-(4-(1-(benzo[d][1,3]dioxol-5-yl)ethyl)piperazin-1-yl)-1,3,4-thiadiazol-2-yl)acetamide] | – | ~20000
CC(=O)Nc1nnc(N2CCN([C@@H](C)c3ccc4c(c3)OCO4)CC2)s1 [Hydrochloride salt, (S)—N-(5-(4-(1-(benzo[d][1,3]dioxol-5-yl)ethyl)piperazin-1-yl)-1,3,4-thiadiazol-2-yl)acetamide] | – | ~4500
CC(=O)Nc1nnc(N2CCN([C@@H](C)c3ccc4c(c3)OCO4)CC2)s1 [Maleate salt, (S)—N-(5-(4-(1-(benzo[d][1,3]dioxol-5-yl)ethyl)piperazin-1-yl)-1,3,4-thiadiazol-2-yl)acetamide] | – | ~4500
